The IC50 is the concentration needed to halve the response being measured. The CC50 is the concentration that lowers cell viability or growth by half. High values mean lower toxicity to the cells, low ones greater toxicity to the cells.

Values after ≈ are worked out from the molar mass of the structure shown. Where two headings read alike, the source gives them in different places. A value given as a limit tells only on which side of the number the result lay.

For data set [1], the system named is Trypanosoma brucei brucei Squib-427 strain, suramin-sensitive, trypomastigote stage. Description: In vitro activity against T. b. brucei. The format is cell-based. Particulars: T. b. brucei Squib-427 trypomastigotes, 3 days, resazurin. The method, then:
(§1) Briefly, S. aureus and E. coli were cultured in MHT (Mueller Hinton Broth) and maintained on TSA (Tryptone Soy Agar). T. cruzi, Tulahuen CL2 galactosidase strain (nifurtimox- sensitive), was maintained on MRC-5SV2 (human lung fibroblast) cells in MEM medium, supplemented with 200 mmol L^–1L-glutamine, 16.5 mmol L^–1 NaHCO3, and 5% inactivated fetal calf serum. The T. b. brucei Squib 427 strain (suramine-sensitive) and T. b. rhodesiense STIB-900 strain were maintained in Hirumi’s Modified Iscove’s medium-9 (HMI-9) medium, supplemented with 10% inactivated fetal calf serum. MRC-5SV2 cells were cultured in MEM + Earle’s salts-medium, supplemented with 2 mmol L^–1L-glutamine, 16.5 mmol L^–1 NaHCO3, and 5% inactivated fetal calf serum. All cultures were incubated at 37 °C under an atmosphere of 5% CO2.
(§2) The assay was performed at 37 °C under an atmosphere of 5% CO2 in sterile 96-well microtiter plates, each well containing the aqueous compound (10 μL) dilution together with the parasite suspension [190 μL; 1.5 × 10^3 parasites/well (T. b. brucei) or 4 × 10^3 parasites/well (T. rhodesiense)]. The compounds were tested at 64, 16, 4, 1, and 0.25 μmol L^–1. Parasite growth was compared to untreated-infected controls and uninfected controls. After 3 days of incubation, parasite growth was assessed fluorimetrically after addition of resazurin [50 μL; 50 μg/mL in phosphate buffer] to each well. After 6 h (T. b. rhodesiense) or 24 h (T. b. brucei) at 37 °C, fluorescence was measured (λex 550 nm, λem 590 nm). The results were expressed as % reduction in parasite growth/viability compared to control wells, and an IC50 was calculated.
In general terms: The colour change of resazurin is a common sign of viable cells or microbes.

The test system of data set [2] is Trypanosoma brucei rhodesiense STIB900 strain, drug susceptible, trypomastigote stage. Description: In vitro activity against T. b. rhodesiense. The data set is classed as cell-based. Conditions: T. b. rhodesiense STIB900 trypomastigotes, 3 days, resazurin. On the procedure:
as §1, §2

The test system of data set [3] is Leishmania infantum (intracellular amastigotes). Description: In vitro activity against L. infantum. The format is cell-based.
A further data set has as its system Aspergillus fumigatus. Description: In vitro activity against A. fumigatus. The data set is classed as cell-based. The method, then: (§3) The assays were performed at 37 °C in sterile 96-well microtiter plates, each well containing 10 μL of aqueous compound together with a bacterial/fungal/MRC-5 inoculum (190 μL; 5 × 10^3 CFU/mL). The compounds were tested at 64, 16, 4, 1, and 0.25 μ-mol L^–1. Bacterial/fungal/MRC-5 growth was compared to untreated-control wells (100% growth) and medium-control wells (0% cell growth). After 3 days of incubation, 50 μL of resazurin was added in each well. After 30 min at 37 °C, the fluorescence was measured at λex = 550 nm and λem = 590 nm. The results are expressed as % reduction in cell growth/viability compared to control wells, and IC50 values were determined.

Data set [4] can be described thus: Cytotoxicity on primary peritoneal mouse macrophages. Particulars: primary peritoneal mouse macrophages (PMM). The data set is classed as cell-based.
Another data set concerns Candida albicans. As to the kind of experiment: In vitro activity against C. albicans. The format is cell-based. The method, then: as §3
The next data set concerns Staphylococcus aureus. As to the kind of experiment: In vitro activity against S. aureus. Conditions: resazurin. The data set is classed as cell-based. The method, then:
as §1, §3

The test system of data set [5] is Trypanosoma cruzi Tulahuen CL2 amastigote stage. As to the kind of experiment: In vitro activity against T. cruzi. The data set is classed as cell-based. Particulars: T. cruzi Tulahuen CL2 amastigotes on MRC-5 cells, 7 days. The method, then: as §1
The assay was performed at 37 °C under an atmosphere of 5% CO2 in sterile 96-well microtiter plates, each well containing 10 μL of the aqueous compound together with MRC-5 cell/parasite inoculum (190 μL; 4 × 10^3 cells/well + 4 × 10^4 parasites/well). The compounds were tested at 64, 16, 4, 1, and 0.25 μmol L^–1. Parasite growth was compared to that of untreated-infected controls and uninfected controls. After 7 days of incubation, parasite burdens were assessed after adding the substrate CPRG [chlorophenolred β-D-galactopyranoside; 50 μL/well of a solution of CPRG (15.2 mg); and Nonidet (250 μL) in PBS (100 mL)]. The sample was analyzed spectrophotometrically at 540 nm after 4 h. The results were expressed as % reduction in parasite burden compared to control wells, and an IC50 was calculated.

A further data set relates to Escherichia coli. As to the kind of experiment: In vitro activity against E. coli. The format is cell-based. Particulars: resazurin. The method, then:
as §1, §3

Data set [6] is described as follows: Sequestering ability of MNZ (pL0.5) toward Cu2+. The format is physicochemical. Conditions: toward Cu^2+, t = 37 °C, I = 0.15 mol L^–1, pH = 7.4. An excerpt:
(§4) The tendency of a ligand to complex a free metal cation in solution to form metal–ligand species is expressed as the sequestering ability. To describe the sequestering ability of a ligand toward a certain metal cation, however, the mere knowledge of formation constants is not enough as it is necessary to consider all the possible interactions that both ligand and metal cation may have with all the species present in solution. In order to define it quantitatively, the empirical parameter pL0.5 was introduced, which represents the cologarithm of the ligand concentration necessary to sequester 50% of the metal cation in traces.[34],[35] The calculation is based on the following Boltzmann-type sigmoidal equation: [drawing 33] 3 where χ is the sum of molar fractions of the different complex species and pL is the cologarithm of the total ligand concentration.
(§5) A comparison between the sequestering ability of MNZ toward Zn^2, Cu^2+, and Ca^2+ (one of the main metal cations present in human body and previously studied in our recent work[30]) was evaluated under physiological conditions.

Data set [7] can be described thus: Sequestering ability of MNZ (pL0.5) toward Zn2+. Conditions: toward Zn^2+, t = 37 °C, I = 0.15 mol L^–1, pH = 7.4. The format is physicochemical.
Text: as §4, §5

The nature of data set [8]: Cytotoxicity on MRC-5 cells. The data set is classed as cell-based. Conditions: MRC-5 SV2 human fetal lung fibroblasts; MRC-5 human fetal lung fibroblasts cytotoxicity. The method, then:
as §3, with “Briefly, S. aureus and E. coli were cultured in MHT (Mueller Hinton Broth) and maintained on TSA (Tryptone Soy Agar). […] The T. b. brucei Squib 427 strain (suramine-sensitive) and T. b. rhodesiense STIB-900 strain were maintained in Hirumi’s Modified Iscove’s medium-9 (HMI-9) medium, supplemented with 10% inactivated fetal calf serum. […] All cultures were incubated at 37 °C under an atmosphere of 5% CO2. The assays” for “The assays”

Data set [9] is described as follows: Sequestering ability of MNZ (pL0.5) toward Ca2+. Conditions: toward Ca^2+, t = 37 °C, I = 0.15 mol L^–1, pH = 7.4. The format is physicochemical.
Text: as §4, §5

The test system of data set [10] is Primary peritoneal mouse macrophages (PMM). Description: Cytotoxicity on primary peritoneal mouse macrophages. The format is cell-based.
Data set [11] deals with MRC-5 human fetal lung fibroblasts. Description: Cytotoxicity on MRC-5 cells. The format is cell-based. Particulars: MRC-5 human fetal lung fibroblasts cytotoxicity. The method, then: as §3, with “Briefly, S. aureus and E. coli were cultured in MHT (Mueller Hinton Broth) and maintained on TSA (Tryptone Soy Agar). […] The T. b. brucei Squib 427 strain (suramine-sensitive) and T. b. rhodesiense STIB-900 strain were maintained in Hirumi’s Modified Iscove’s medium-9 (HMI-9) medium, supplemented with 10% inactivated fetal calf serum. […] All cultures were incubated at 37 °C under an atmosphere of 5% CO2. The assays” for “The assays”

Setting [12] is: Trypanosoma brucei, 72 h, read-out: IC50.
[13] abbreviates: Leishmania infantum, read-out: IC50.
Where [14] appears, read: Candida albicans, read-out: IC50.
Setting [15] is: Staphylococcus aureus, read-out: IC50.
Where [16] appears, read: Trypanosoma cruzi, MRC5, 168 h, read-out: IC50.
[17] abbreviates: Escherichia coli, read-out: IC50.

As to `Cc1ccc(C(=O)Nc2ccc(S(=O)(=O)O)c3cc(S(=O)(=O)O)cc(S(=O)(=O)O)c23)cc1NC(=O)c1cccc(NC(=O)Nc2cccc(C(=O)Nc3cc(C(=O)Nc4ccc(S(=O)(=O)O)c5cc(S(=O)(=O)O)cc(S(=O)(=O)O)c45)ccc3C)c2)c1` [Suramine], the figures for the IC50 in [1] (setting [12]) and in data set [2] (setting [12]) were 0.03 µg/mL (≈ 0.0231 µM) and 0.07 µg/mL (≈ 0.054 µM), respectively.
Consider `Cc1ncc([N+](=O)[O-])n1CCO` [MNZ(L), 2-methyl-5-nitro-1H-imidazole-1-ethanol], for which the IC50 was over 5.64 µg/mL in data set [3] (setting [13]); over 5.64 µg/mL in the data set with Aspergillus fumigatus (Aspergillus fumigatus, read-out: IC50); over 5.64 µg/mL in the data set on Candida albicans (setting [14]); over 5.64 µg/mL in the data set on Staphylococcus aureus (setting [15]); over 5.64 µg/mL in data set [5] (setting [16]); over 5.64 µg/mL with Escherichia coli (setting [17]). In addition, the IC50 in [1] (setting [12]) and in data set [2] (setting [12]) was over 5.64 µg/mL throughout. For the same compound, the CC50 in data set [4] was over 5.64 µg/mL. Further, the pL0.5 was 4.3 in data set [6], 3.1 in [7] and 1.9 in [9]. Further, in [8], the CC50 at 3 days is over 5.64 µg/mL.
In the case of `Nc1[nH]c(=O)ncc1F` [Flucytosine], the half-inhibitory concentration (IC50) with Candida albicans (setting [14]) was determined as 0.51 µg/mL (≈ 3.95 µM).
With `C[C@H]1c2cccc(O)c2C(=O)C2=C(O)[C@]3(O)C(=O)C(C(N)=O)=C(O)[C@@H](N(C)C)[C@@H]3[C@@H](O)[C@@H]21` [Doxycycline], the values for the IC50 in the data set on Staphylococcus aureus (setting [15]) and in the data set on Escherichia coli (setting [17]) were 0.08 µg/mL (≈ 0.18 µM) and 0.64 µg/mL (≈ 1.44 µM), respectively.
As to `CCCCCCCCCCCCCCCCOP(=O)([O-])OCC[N+](C)(C)C` [Miltefosine], the half-inhibitory concentration (IC50) in data set [3] (setting [13]) turned out to be 2.05 µg/mL (≈ 5.03 µM).
In the case of `[Cl][Cu][Cl]` [Cu^2+], the IC50 (in data set [3]; in the data set with Aspergillus fumigatus; in the data set on Candida albicans; with Staphylococcus aureus; in [5]; in the data set with Escherichia coli) was over 2.42 µg/mL each time. Further, the values for the IC50 in data set [1] and in data set [2] were 0.75 µg/mL and 0.94 µg/mL, respectively. Also, the half-maximal cytotoxic concentration (CC50) in [10] and in data set [11] was over 2.42 µg/mL each time.
For `[Cl-].[Cl-].[Zn+2]` [Zn^2+], the IC50 (in [3]; in the data set on Aspergillus fumigatus; in the data set on Candida albicans; in the data set with Staphylococcus aureus; in data set [5]; with Escherichia coli) was over 1.79 µg/mL throughout. Moreover, the concentration for half-maximal inhibition (IC50) in data set [1] and in data set [2] was over 1.79 µg/mL each time. The CC50 in data set [10] and in data set [11] was over 1.79 µg/mL each time.
With `O=C(Cn1ccnc1[N+](=O)[O-])NCc1ccccc1` [Benznidazol], the IC50 in [5] (setting [16]) amounted to 0.43 µg/mL (≈ 1.65 µM).
